Values after ≈ are worked out from the molar mass of the structure shown. Like-named read-outs stand apart in the source and are kept apart here.
Assays:
[1] = Water solubility (physiochemical properties); type: physicochemical; settings: water
[2] = Mouse PK of G7883, PO in MCT vehicle; type: in vivo, female CD-1 mice; settings: for AUC(0-t) / Cmax / Tmax / bioavailability / half-life: female; for AUC(0-t): CD-1, mouse, plasma, po, read-out: AUC0 to 8; for Cmax / Tmax / bioavailability / half-life: CD-1, plasma
Description: A total of 0.6% w/v Methylcellulose, 0.2% w/v Tween 80 in water (MCT) was prepared by slowly adding Methylcellulose (Methylocel A15 LV; CAS 9004-67-5, Part ID: 64605-500G-F 27.5-31.5% Methoxyl basis, Sigma-Aldrich, St. Louis, MO, USA) in small portions to prevent clumping while stirring into water at 70–80 °C. Once a homogeneous suspension formed, Tween 80 (Polysorbate 80; CAS#9005-65-6 (Polyoxyethylene (20) Sorbitan Monooleate; Tween 80) Part ID: PO138, Spectrum Chemical, New Brunswick, NJ, USA) was added and stirred until fully dissolved. Vehicle was filtered through 0.22 µm PES (Corning REF no. 431098) prior to adding to the compound for dosing. Respective compound was added based on the target concentration to the MCT vehicle and stirred at 35 °C until the power was well-dispersed. Formulations were homogenized through a polytron homogenizer and then sonicated in a water bath sonicator until a homogeneous suspension was achieved.
The pharmacokinetics of G7883 were determined in female CD-1 mice obtained from Charles River Laboratories (Hollister, CA, USA) with a body weight ranging from 20 to 25 g. The pharmacokinetics of G6893 were determined in female C57BL-6 mice (Lingchang/Vital River Laboratory Animal Co., Ltd., Shanghai/Beijing, China) with a body weight ranging from 20 to 35 g. Three mice were given an oral dose of G7883 formulated in 0.6% Methylcellulose, 0.2% Tween80 in water (MCT) at 25 mg/kg and 250 mg/kg with a dosing volume of 10 mL/kg. Food and water were available ad libitum to the animals. Three mice were given an oral dose of G6893 formulated in 0.6% methylcellulose; 0.2% Tween80 in water with pH adjusted to 2.5 at 30 mg/kg and a dose volume of 5 mL/kg. For both compounds, G7883 and G6893, 15 µL of blood was collected serially at 0. 25, 0.5, 1, 2, 4, 6, 8, and 24 h post-dose and diluted in 60 µL of 1.7 mg/mL potassium K2EDTA water. The frozen blood samples were stored at −70 °C or lower until analysis.
All plasma and cell media concentrations of G7883 and G6893 were determined using liquid chromatography–tandem mass spectrometry after protein precipitation with acetonitrile and injection of the supernatant onto the column (Waters ACQUITY UPLC BEH C18 1.7 μm, 2.1 × 50 mm for G7883 and G6893). The aqueous mobile phase was 0.1% formic acid, 2 mM ammonium formate in water/acetonitrile (v:v, 95:5), and the organic mobile phase was 0.1% formic acid, 2 mM ammonium formate in acetonitrile/water (v:v, 95:5). An AB Sciex API 4000 Triple Quad instrument was used for detecting G7883 and G6893 (Figure S2). The electrospray ionization source in both columns was operated in the positive ion and multiple reaction monitoring (MRM) detection modes. The MRM transitions for G7883 and G6893 were m/z 462.2 (Q1) and 253.10 (Q3) and m/z 454.2 (Q1) and 325.9 (Q3), respectively. The dynamic range of both assays was 0.50–50.0 ng/mL, and the total run time was 1.6 min. The lower limit of quantitation of the assay was […], and the dilution quality control concentration was set at 10 ng/mL with acceptance criteria for accuracy and precision of 25%.
All plasma and cell media concentrations of G7883 were determined using liquid chromatography–tandem mass spectrometry after protein precipitation with acetonitrile and injection of the supernatant onto the column (Phenomenex Kinetex XB-C18, 30 × 2.1 mm, 2.6 µm). The aqueous mobile phase was 10 mM of ammonium formate in water, and the organic mobile phase was 0.1% formic acid in acetonitrile. An AB Sciex API 5500 Triple Quad instrument was used for detecting G7883. The electrospray ionization source in both columns was operated in the positive ion and MRM detection modes. The MRM transitions for G7883 were m/z 462.2 (Q1) and 253.10 (Q3), respectively. The dynamic range of the assay was 0.50–50.0 ng/mL, and the total run time was 2 min. […]

[3] = 250 mg/kg, PO 250 mpk, mean ± SD

solubility [1]: 85 µg/mL (≈ 170 µM)
AUC0 to 8 ([2]; PO 250 mpk, mean ± SD, 250 mg/kg): 25.1 ± 5.43 µM·h
AUC(0-t) ([2]; 25 mg/kg, PO 25 mpk, mean ± SD): 1.99 ± 0.4 µM·h
AUC(0-t) [2, 3]: 25 µM·h
Cmax ([2]; 25 mg/kg, PO 25 mpk, mean ± SD): 1.25 ± 0.82 µM
Tmax ([2]; 25 mg/kg, PO 25 mpk, mean ± SD): 0.5 h
bioavailability ([2]; 25 mg/kg, PO 25 mpk, mean ± SD, read-out: F): 6.18 ± 1.24%
half-life ([2]; 25 mg/kg, PO 25 mpk, mean ± SD, read-out: t1/2 (converted)): 2.17 ± 0.73 h
Cmax [2, 3]: 6.85 ± 2.24 µM
Tmax [2, 3]: 0.583 ± 0.382 h
bioavailability ([2]; 250 mg/kg, PO 250 mpk, mean ± SD, read-out: F): 7.8 ± 1.69%
half-life ([2]; 250 mg/kg, PO 250 mpk, mean ± SD, read-out: t1/2 (converted)): 2.74 ± 0.201 h
bioavailability ([2]; PO, 25 to 250 mpk, read-out: bioavailability): ~7%
half-life ([2]; PO, 25 to 250 mpk, read-out: plasma half-life (converted)): 2 h
Compound: Cc1nccnc1-c1nn2c(=O)cc(-c3ccc(C4CCCCC4)cc3)[nH]c2c1C(=O)N1CC(CF)C1 [G7883, 5-(4-cyclohexylphenyl)-3-[3-(fluoromethyl)azetidine-1-carbonyl]-2-(3-methylpyrazin-2-yl)-4H-pyrazolo[1,5-a]pyrimidin-7-one]

Reference: paper PMC10892288, “Early Stage Preclinical Formulation Strategies to Alter the Pharmacokinetic Profile of Two Small Molecule Therapeutics” (Pharmaceuticals, 2024)
